Test results reported in the supplement of paper PMC10307832.

Legend:
Assay in all cases: relative viability (nuclei count vs DMSO), 5 days (fraction); higher = more cells survive
[1] = compound: C1=CC=C2C(=C1)N=C(S2)C(C#N)C3=NC(=NC=C3)NCCC4=CN=CC=C4 + CC(=O)c1c(C)c2cnc(Nc3ccc(N4CCNCC4)cn3)nc2n(C2CCCC2)c1=O [Palbociclib] (partner 0.5 µM)
Summary of the method: (§1)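 Cells from lung cancer lines were seeded into 1536-well plates and, one day later, dosed by pin tool. Treatments were either a single drug or a fixed dose of an anchor drug with five library-drug doses (not always all listed) in √10 steps. After 5 days, nuclei were stained in a one-step fixation (final 0.05% Triton X-100, 1% formaldehyde, 1 ug/ml Hoechst) and counted on 4× images, and relative viability is the treated-to-vehicle nuclei ratio, as the median of duplicate plates.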

Vandetanib + Palbociclib = compound: COc1cc2/c(=N/c3ccc(Br)cc3F)nc[nH]c2cc1OCC1CCN(C)CC1 [Vandetanib] + CC(=O)c1c(C)c2cnc(Nc3ccc(N4CCNCC4)cn3)nc2n(C2CCCC2)c1=O [Palbociclib] (partner 0.5 µM)
Summary of the method: as §1

[2] = compound: C1=CC=C2C(=C1)N=C(S2)C(C#N)C3=NC(=NC=C3)NCCC4=CN=CC=C4 + CS(=O)(=O)N1CCN(Cc2cc3nc(-c4cccc5[nH]ncc45)nc(N4CCOCC4)c3s2)CC1 [Pictilisib] (partner 1 µM)
Summary of the method: as §1

Vandetanib + Bortezomib = compound: COc1cc2/c(=N/c3ccc(Br)cc3F)nc[nH]c2cc1OCC1CCN(C)CC1 [Vandetanib] + CC(C)C[C@H](NC(=O)[C@H](Cc1ccccc1)NC(=O)c1cnccn1)B(O)O [Bortezomib] (partner 0.002 µM)
Summary of the method: as §1

| Cell Line | relative viability ([1]; first compound 0.005 µM) | relative viability ([1]; first compound 0.01581 µM) | relative viability ([1]; first compound 0.05 µM) | relative viability ([1]; first compound 0.1581 µM) | relative viability ([1]; first compound 0.5 µM) | relative viability (Vandetanib + Palbociclib; first compound 0.02 µM) | relative viability (Vandetanib + Palbociclib; first compound 0.06325 µM) | relative viability (Vandetanib + Palbociclib; first compound 0.2 µM) | relative viability (Vandetanib + Palbociclib; first compound 0.6325 µM) | relative viability (Vandetanib + Palbociclib; first compound 2 µM) | relative viability ([2]; first compound 0.005 µM) | relative viability ([2]; first compound 0.01581 µM) | relative viability ([2]; first compound 0.05 µM) | relative viability ([2]; first compound 0.1581 µM) | relative viability ([2]; first compound 0.5 µM) | relative viability (Vandetanib + Bortezomib; first compound 0.02 µM) | relative viability (Vandetanib + Bortezomib; first compound 0.06325 µM) | relative viability (Vandetanib + Bortezomib; first compound 0.6325 µM) | relative viability (Vandetanib + Bortezomib; first compound 2 µM) | relative viability (Vandetanib + Bortezomib; first compound 0.2 µM) |
| --- | --- | --- | --- | --- | --- | --- | --- | --- | --- | --- | --- | --- | --- | --- | --- | --- | --- | --- | --- | --- |
| NCI-H1650 | 0.318 | 0.272 | 0.336 | 0.395 | 0.175 | 0.34 | 0.291 | 0.289 | 0.318 | 0.244 | 0.488 | 0.529 | 0.559 | 0.723 | 0.471 | 0.253 | 0.21 | 0.209 | 0.195 | – |
| NCI-H1651 | 0.473 | 0.518 | 0.535 | 0.539 | 0.504 | 0.484 | 0.501 | 0.515 | 0.515 | 0.446 | 0.364 | 0.585 | 0.68 | 0.815 | 0.565 | 0.915 | 0.883 | 0.897 | 0.839 | 0.893 |
| NCI-H1666 | 0.64 | 0.654 | 0.632 | 0.631 | 0.657 | 0.669 | 0.605 | 0.62 | 0.621 | 0.63 | 0.474 | 0.39 | 0.369 | 0.402 | 0.332 | 0.849 | 0.814 | 0.831 | 0.786 | 0.712 |
| NCI-H1734 | 0.303 | 0.313 | 0.307 | 0.355 | 0.33 | 0.35 | 0.348 | 0.314 | 0.373 | 0.295 | 0.439 | 0.488 | 0.406 | 0.587 | 0.473 | 0.976 | 0.869 | 0.904 | 0.926 | 0.944 |
| NCI-H1755 | 0.431 | 0.44 | 0.481 | 0.5 | 0.644 | 0.46 | 0.471 | 0.427 | 0.446 | 0.439 | 0.392 | 0.35 | 0.379 | 0.576 | 0.384 | 0.998 | 1.04 | 1 | 0.959 | 1.07 |
| NCI-H1792 | 0.473 | 0.732 | 0.622 | 0.995 | 0.474 | 0.639 | 0.626 | 0.636 | 0.634 | 0.501 | – | 0.312 | 0.285 | 0.246 | 0.225 | 0.994 | 0.926 | 0.865 | 0.887 | 0.914 |
| NCI-H1915 | – | 0.532 | 0.498 | 0.569 | 0.523 | 0.51 | 0.519 | 0.499 | 0.484 | 0.522 | 0.933 | 0.929 | 0.923 | 1.1 | 0.879 | 0.947 | 0.885 | 0.973 | 0.943 | 1.07 |
| NCI-H1975 | 0.565 | 0.538 | 0.656 | 0.832 | 0.408 | 0.539 | 0.542 | 0.593 | 0.585 | 0.61 | 0.262 | 0.28 | 0.284 | 0.307 | 0.255 | 0.359 | 0.35 | 0.355 | 0.383 | 0.376 |
